Laboratory results from US11396493B2, “Amorphous pyrrolidine derivative as PPAR agonist and preparation method thereof” (GUANGDONG RAYNOVENT BIOTECH CO., LTD., priority 2017, dated 2022).
One block for each compound: values may come before it.

Tests used:
[1] = target: T1, PPAR Alpha (Homo sapiens, UniProt Q07869); test: PathHunter NHR protein interaction test, agonist mode, PPAR Alpha; format: cell-based
T1 sequence (Q07869 1-468): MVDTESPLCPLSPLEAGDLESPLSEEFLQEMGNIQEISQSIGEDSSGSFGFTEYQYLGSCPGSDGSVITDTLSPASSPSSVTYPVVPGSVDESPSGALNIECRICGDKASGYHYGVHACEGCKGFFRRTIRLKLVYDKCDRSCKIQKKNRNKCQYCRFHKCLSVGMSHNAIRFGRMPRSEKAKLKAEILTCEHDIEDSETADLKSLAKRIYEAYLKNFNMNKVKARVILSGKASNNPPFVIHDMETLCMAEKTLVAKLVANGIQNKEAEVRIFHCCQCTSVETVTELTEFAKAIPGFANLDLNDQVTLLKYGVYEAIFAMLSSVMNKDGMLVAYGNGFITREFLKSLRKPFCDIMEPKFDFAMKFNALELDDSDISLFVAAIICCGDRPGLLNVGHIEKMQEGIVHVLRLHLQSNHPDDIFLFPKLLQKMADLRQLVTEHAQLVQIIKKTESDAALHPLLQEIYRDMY
Description: (§1) Principles of in Vitro Test of PPAR Agonist Activity
(§2) Nuclear Hormone Receptor (NHR) Test
(§3) PathHunter's NHR protein interaction and nuclear transfer test are used to detect the activation ability of nuclear hormone receptor in a uniform, non-imaging experiment. This technology is called as enzyme fragment complementation […], and is developed by DiscoverX.
(§4) NHR protein test is based on the detection of the protein-protein interaction between a standard length of NHR protein in an activated state and a nuclear fusion protein containing a steroid receptor co-activating peptide (SRCP) region and one or more standard LXXLL acting sequences.
(§5) NHR is labeled on the ProLink™ component of an EFC test system, and the SRCP region and the enzyme receptor component (EA) are fused and expressed in the nucleus. When bound to the ligand, the NHR will transfer to the nucleus and obtain the SRCP region in which a complementary effect is produced, thereby generating an equivalent amount of activated-galactosidase (-Gal), accompanied by the generation of chemical light signals. The benefits associated with this pathway include reduced incubation time of the compound, direct test of an NHR target, use of human NHR sequences with a standard length, and selection of some new classes of compounds based on the disruption of protein-protein interactions.
(§6) The NHR NT test detected the transfer of an NHR between the cytoplasmic and nuclear compartments. The receptor was labeled on the ProLink™ component of the EFC test system, while the EA and nuclear sequence were fused, thereby limiting the expression of EA on the nucleus. Nucleus transfer leaded to the complementary effect with EA, thereby generating one equivalent of activated galactosidase (-Gal), accompanied by the generation of chemical light signals.
(§7) 1. PathHunter NHR cell strains were spread from a frozen stock in accordance with standard operations.
(§8) 2. Cells were seeded onto a 384-well white cell plate of 20 uL/well, and incubated at 37° C. for an appropriate time prior to test. The culture medium contained activated carbon dextran with filtered serum to reduce the level of hormone expression.
(§9) Experiments of Agonist Mode:
(§10) 1. As for the measurement of an agonist activity, it is required to incubate the cells with the compound to induce a response.
2. […]
(§11) 2. The chemiluminescence signals generated by the microplate were to be detected by a PerkinElmer Envision instrument.
(§12) 1. The activity of the compound was analyzed by CIBS data analysis software (ChemInnovation, CA).
(§13) 2. For experiments of agonist mode, the percentage activity is calculated by the following formula: % activity=100%×(the mean RLU of the compound to be tested−the mean background RLU of the medium)/(the mean of maximum control of the ligand−the mean background RLU of the medium)

[2] = target: T2, PPAR Delta (Homo sapiens, UniProt Q03181); test: PathHunter NHR protein interaction test, agonist mode, PPAR Delta; format: cell-based
T2 sequence (Q03181 1-441): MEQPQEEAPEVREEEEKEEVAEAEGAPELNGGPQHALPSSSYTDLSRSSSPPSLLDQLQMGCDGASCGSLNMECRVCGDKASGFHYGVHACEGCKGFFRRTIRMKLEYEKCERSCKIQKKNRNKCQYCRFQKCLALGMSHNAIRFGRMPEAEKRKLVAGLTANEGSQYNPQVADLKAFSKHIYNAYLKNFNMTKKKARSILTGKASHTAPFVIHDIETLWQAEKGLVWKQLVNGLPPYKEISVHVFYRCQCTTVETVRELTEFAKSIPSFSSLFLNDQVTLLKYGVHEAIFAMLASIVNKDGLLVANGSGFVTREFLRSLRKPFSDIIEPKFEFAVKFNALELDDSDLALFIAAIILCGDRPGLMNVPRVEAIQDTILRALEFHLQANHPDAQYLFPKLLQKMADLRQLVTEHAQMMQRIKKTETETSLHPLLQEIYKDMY
Description: as §1, §2, §3, §4, §5, §6, §7, §8, §9, §10
2. […]
as §11, §12, §13

[3] = system: cytokines of PPAR-associated pathways; test: Effect on cytokines of PPAR-associated pathways; details: no data shown
[4] = Solid physical stability test at high humidity (25° C./92.5% RH), appearance and XRPD; format: physicochemical
Experimental: Samples (each about 100 mg) of the amorphous form of the compound of formula (I) were weighed in duplicates, and placed on the bottom of a glass sample bottle to spread out into a thin layer. The mouth of the glass sample bottle was sealed with aluminum foil which was pierced to form some holes thereon to ensure that the samples could sufficiently contact with the ambient air. The prepared samples were placed under the relative conditions of 25° C./92.5%, and detected for their physical stability on Day 10. Meanwhile, a sample (about 100 mg) of the amorphous form of the compound of formula (I) was separately weighed, placed on the bottom of the glass sample bottle which was sealed with a screw cap, and stored at −20° C. as control. On Day 10, all the samples were taken out and returned to room temperature. The samples were visually observed for their appearance changes, and detected by XRPD for their forms. By comparing the accelerated sample with the control sample, the solid physical stability of the compound of formula (I) was determined.

[5] = Solid stability test under high temperature and high humidity (40° C./75% humidity), HPLC; format: physicochemical
Experimental: Samples (each about 100 mg) of the amorphous form of the compound of formula (I) were weighed in duplicates, and placed on the bottom of a glass sample bottle to spread out into a thin layer. The mouth of the glass sample bottle was sealed with aluminum foil which was pierced to form some holes thereon to ensure that the samples could sufficiently contact with the ambient air. The samples were placed in a constant temperature and humidity chamber at 40° C./75% humidity. The samples stored under the above conditions were sampled and tested on Days 10, 30, 60, and 90. The test results were compared with the initial test results of Day 0.

[6] = Stability tests of the amorphous form in various solvents, XRPD; format: physicochemical; details: for Appearance: 40° C. 2 days
Experimental: A plurality of samples of the amorphous form of the compound of formula (I) (each about 20 mg) were respectively added to 0.3-0.4 mL of a single or mixed solvent as listed in the table below, and stirred at 40° C. After being stirred for 2 days, if the sample was still in a state of a solution or close to a solution, it was filtered, followed by natural evaporation of solvent; and if the sample was still a suspension, the sample was centrifuged for collecting the precipitates, and the supernate was placed in a fuming cupboard until the solvent was dried off. Then, the precipitates and the solids obtained after solvent evaporation were placed in a vacuum drying oven at 40° C. overnight. The solids in all the samples were collected and detected by XRPD for their states.

[7] = target: T3, PPAR Gamma (Homo sapiens, UniProt P37231); test: PathHunter NHR protein interaction test, agonist mode, PPAR Gamma; format: cell-based; details: agonist mode
T3 sequence (P37231 1-505): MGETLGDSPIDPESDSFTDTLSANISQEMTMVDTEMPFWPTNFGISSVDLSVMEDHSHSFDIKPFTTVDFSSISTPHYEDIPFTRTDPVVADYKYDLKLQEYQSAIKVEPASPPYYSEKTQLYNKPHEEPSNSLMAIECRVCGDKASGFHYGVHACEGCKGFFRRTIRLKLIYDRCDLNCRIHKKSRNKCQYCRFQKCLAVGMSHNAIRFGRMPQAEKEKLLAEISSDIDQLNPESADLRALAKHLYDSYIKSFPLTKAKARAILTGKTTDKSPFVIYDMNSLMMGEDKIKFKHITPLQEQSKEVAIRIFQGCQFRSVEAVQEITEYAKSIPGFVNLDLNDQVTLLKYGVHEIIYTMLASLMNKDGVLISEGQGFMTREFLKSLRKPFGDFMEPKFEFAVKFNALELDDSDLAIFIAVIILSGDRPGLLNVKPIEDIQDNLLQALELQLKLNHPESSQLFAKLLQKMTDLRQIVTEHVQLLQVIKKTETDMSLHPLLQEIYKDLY
Description: as §1, §2, §3, §4, §5
The NHR NT test detected the transfer of an NHR between the cytoplasmic and nuclear compartments. […]
as §11, §12, §13

[8] = 40° C./75% humidity, open, Day 10, HPLC
[9] = 40° C./75% humidity, open, Day 30, HPLC
[10] = 40° C./75% humidity, open, Day 60, HPLC
[11] = 40° C./75% humidity, open, Day 90, HPLC

PPAR Alpha Maximum stimulus-response value ([1]; reference agonist, set as 100%): 100%
Compound: CC(C)(Sc1ccc(CCN(CCCCC2CCCCC2)C(=O)NC2CCCCC2)cc1)C(=O)O [GW7647, reference compound]

Compound: CCCc1c(OCCCOc2ccc(OCC(=O)O)cc2)ccc(C(C)=O)c1O [L-165,041, reference compound]
EC50 ([2]; agonist mode): < 100 nM
PPAR Delta Maximum stimulus-response value ([2]; reference agonist, set as 100%): 100%

Appearance ([4]; 25° C./92.5% Relative Humidity (Open), Day 10): Off-white powder
Form ([4]; 25° C./92.5% Relative Humidity (Open), Day 10, XRPD): Amorphous
Appearance ([5]; 40° C./75% humidity, open, Day 10): Off-white powder
Purity (%) [5, 8]: 97.49%
Total Impurity (%) [5, 8]: 2.51%
Appearance ([5]; 40° C./75% humidity, open, Day 30): Off-white powder
Purity (%) [5, 9]: 97.31%
Total Impurity (%) [5, 9]: 2.69%
Appearance ([5]; 40° C./75% humidity, open, Day 60): Off-white powder
Purity (%) [5, 10]: 97.59%
Total Impurity (%) [5, 10]: 2.41%
Appearance ([5]; 40° C./75% humidity, open, Day 90): Off-white powder
Purity (%) [5, 11]: 97.28%
Total Impurity (%) [5, 11]: 2.72%
Appearance ([5]; Day 0 (initial)): Off-white powder
Purity (%) ([5]; Day 0 (initial), HPLC): 97.37%
Total Impurity (%) ([5]; Day 0 (initial), HPLC): 2.63%
Appearance ([6]; 1,4-dioxane, about 20 mg in 0.3-0.4 mL, cell wraps: ...Solid precipitated after evaporation of solvent): Suspension (2 days)/Solid
Appearance ([6]; Acetone, about 20 mg in 0.3-0.4 mL, cell wraps: ...Solid precipitated after evaporation of solvent): Suspension (2 days)/Solid
Appearance ([6]; Acetone:water = 3:1, about 20 mg in 0.3-0.4 mL, cell wraps: ...Solid precipitated after evaporation of solvent): Suspension (2 days)/Solid
Appearance ([6]; Acetonitrile, about 20 mg in 0.3-0.4 mL, cell wraps: ...Solid precipitated after evaporation of solvent): Suspension (2 days)/Solid
Appearance ([6]; Acetonitrile:water = 3:1, about 20 mg in 0.3-0.4 mL, cell wraps: ...Solid precipitated after evaporation of solvent): Suspension (2 days)/Solid
Appearance ([6]; Ethanol, about 20 mg in 0.3-0.4 mL, cell wraps: ...Solid precipitated after evaporation of solvent): Suspension (2 days)/Solid
Appearance ([6]; Ethanol:water = 3:1, about 20 mg in 0.3-0.4 mL, cell wraps: ...Solid precipitated after evaporation of solvent): Suspension (2 days)/Solid
Appearance ([6]; Ethyl acetate, about 20 mg in 0.3-0.4 mL, cell wraps: ...Solid precipitated after evaporation of solvent): Suspension (2 days)/Solid
Appearance ([6]; Methanol, about 20 mg in 0.3-0.4 mL, cell wraps: ...after evaporation of solvent): Solid precipitated after
Results (form by XRPD) ([6]; Methanol, stirred at 40° C. 2 days): Amorphous
Appearance ([6]; Methanol:water = 3:1, about 20 mg in 0.3-0.4 mL, cell wraps: ...after evaporation of solvent): Solid precipitated after
Results (form by XRPD) ([6]; Methanol:water = 3:1, stirred at 40° C. 2 days): Amorphous
Appearance ([6]; Tetrafuran, about 20 mg in 0.3-0.4 mL, cell wraps: ...Solid precipitated after evaporation of solvent): Suspension (2 days)/Solid
stability of form in various solvents ([6]; summary of Table 4): does not exhibit any change of form
Compound: CSc1ccc(C(=O)[C@@H]2CN(C(=O)Oc3ccccc3)C[C@H]2Cc2cc(C)c(OC(C)(C)C(=O)O)c(C)c2)cc1
effect on cytokines of PPAR-associated pathways [3]: obvious inhibitory effect
stability at high humidity ([4]; 25° C./92.5% RH, Day 10): does not exhibit form and appearance changes
stability at high temperature and humidity ([5]; 40° C./75% humidity, up to Day 90): does not exhibit a significant change in content and impurities

EC50 [7]: > 250 nM
EC50 ([1]; agonist mode): > 250 nM
Compound: CSc1ccc(C(=O)/C=C/c2cc(C)c(OC(C)(C)C(=O)O)c(C)c2)cc1 [GFT-505, Elafibranor, reference compound]
